The values below come from PubChem BioAssay (NCI).

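Test compounds were applied to cells in 96-well plates for 48 hours at 5 doses. GI50 marks 50% less growth. At the TGI there is no net growth.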

Test systems include T-47D breast; UO-31 renal; OVCAR-4 ovarian; UACC-62 melanoma; LOX IMVI melanoma; NCI-H226 lung; OVCAR-8 ovarian; K-562 leukemia.
Common to all, as to assay: NCI anticancer screen, dose series, 48 h

In the case of `CCCCCCCCOC(=O)c1c(C)[nH]c(/C=C2\N=C(c3ccc[nH]3)C=C2OC)c1C`, the GI50 in the test on T-47D breast was 0.0556 µM; with UO-31 renal, 0.0377 µM; in the test with OVCAR-4 ovarian, 0.034 µM; in the test with UACC-62 melanoma it was 0.0295 µM; in the test on LOX IMVI melanoma it was below 0.0134 µM; in the test with NCI-H226 lung, 0.0873 µM. Also, the GI50 in the test with OVCAR-8 ovarian was 0.0459 µM; in the test on K-562 leukemia, 0.0212 µM. Moreover, the TGI was 10.4 µM in the test with T-47D breast; 0.108 µM with UO-31 renal; 16.8 µM in the test on OVCAR-4 ovarian; 0.0904 µM in the test on UACC-62 melanoma; below 0.02 µM in the test with LOX IMVI melanoma; 6.26 µM in the test on NCI-H226 lung. Moreover, the TGI in the test on OVCAR-8 ovarian worked out at 13.8 µM; with K-562 leukemia, 14.2 µM.

On to `CCCCCN(CCCCC)CC(O)c1cc(Cl)ccc1OC` (centres undefined), for which the GI50 in the test with T-47D breast is 11.5 µM; with UO-31 renal, 3.37 µM; with OVCAR-4 ovarian it was 3.17 µM; with UACC-62 melanoma it was 11.1 µM; with LOX IMVI melanoma, 5.23 µM; in the test with NCI-H226 lung it was 9.79 µM. For the same compound, the GI50 was 11.4 µM in the test with OVCAR-8 ovarian and 3.81 µM in the test with K-562 leukemia. Further, the TGI in the test with T-47D breast was 26.9 µM; in the test on UO-31 renal, 15.5 µM; in the test with OVCAR-4 ovarian it was 16 µM; with UACC-62 melanoma, 25.4 µM; with LOX IMVI melanoma, 18.4 µM; in the test on NCI-H226 lung, 23.6 µM. Moreover, the TGI came to 25.7 µM in the test on OVCAR-8 ovarian and 20.3 µM in the test on K-562 leukemia.

As for `CCN1CCN(c2cc(C)nc(N(CCCNc3ccnc4cc(Cl)ccc34)Cc3ccc4c(c3)OCO4)n2)CC1`, the GI50 in the test with T-47D breast is 2.26 µM; in the test with UO-31 renal, 1.51 µM; in the test on OVCAR-4 ovarian, 3.05 µM; in the test with UACC-62 melanoma, 1.85 µM; in the test with LOX IMVI melanoma, 1.89 µM; in the test with NCI-H226 lung, 32.8 µM. Further, the figures for the GI50 in the test with OVCAR-8 ovarian and in the test on K-562 leukemia were 3.19 µM and 1.91 µM, respectively. Besides, the TGI was 4.88 µM with T-47D breast; 3.08 µM in the test with UO-31 renal; 25.1 µM in the test with OVCAR-4 ovarian; 3.51 µM in the test on UACC-62 melanoma; 3.7 µM with LOX IMVI melanoma; above 100 µM with NCI-H226 lung. Besides, the TGI amounted to 14.4 µM in the test with OVCAR-8 ovarian and 7.86 µM in the test on K-562 leukemia.

With `COc1cccc(CN(C)c2ccc(CO)c(Cl)c2)c1`, the GI50 is 0.298 µM with T-47D breast; 14.5 µM with UO-31 renal; 1.19 µM in the test with OVCAR-4 ovarian; 0.19 µM in the test with UACC-62 melanoma; 34.7 µM with LOX IMVI melanoma; 0.0588 µM in the test with NCI-H226 lung. Moreover, the GI50 is 20.7 µM with OVCAR-8 ovarian and 7.56 µM in the test on K-562 leukemia. The TGI was 2.86 µM in the test with T-47D breast; above 83.7 µM in the test with UO-31 renal; 29.4 µM with OVCAR-4 ovarian; 1.63 µM with UACC-62 melanoma; above 100 µM in the test with LOX IMVI melanoma; 0.202 µM in the test on NCI-H226 lung. The TGI with OVCAR-8 ovarian is above 96.5 µM; in the test on K-562 leukemia, above 100 µM.

`c1cc(-c2nnc(SSc3ncnc4nc[nH]c34)o2)ccn1`: the GI50 with T-47D breast is 0.467 µM; with UO-31 renal, 0.742 µM; in the test on OVCAR-4 ovarian, 0.519 µM; with UACC-62 melanoma, 2.02 µM; in the test on LOX IMVI melanoma it was 0.297 µM; in the test on NCI-H226 lung, 4.63 µM. The values for the GI50 in the test with OVCAR-8 ovarian and in the test on K-562 leukemia were 3.26 µM and 0.351 µM, respectively. For the same compound, the TGI in the test with T-47D breast is above 100 µM; with UO-31 renal, above 100 µM; in the test with OVCAR-4 ovarian, above 100 µM; with UACC-62 melanoma, above 100 µM; in the test with LOX IMVI melanoma, 17.3 µM; in the test on NCI-H226 lung, above 100 µM. Further, the TGI in the test with OVCAR-8 ovarian and in the test with K-562 leukemia was above 100 µM each time.

Regarding `NS(=O)(=O)c1ccc(N=Nc2c(O)[nH]c3ccc(C(=O)NCc4ccncc4)cc23)cc1`, the GI50 with T-47D breast, in the test with UO-31 renal, in the test with OVCAR-4 ovarian, in the test on UACC-62 melanoma, in the test on LOX IMVI melanoma and in the test with NCI-H226 lung was above 25 µM throughout. The GI50 with OVCAR-8 ovarian and in the test with K-562 leukemia was above 25 µM each time. Moreover, the TGI with T-47D breast, with UO-31 renal, in the test with OVCAR-4 ovarian, in the test on UACC-62 melanoma, in the test with LOX IMVI melanoma and in the test on NCI-H226 lung was above 25 µM each time. Further, the TGI in the test on OVCAR-8 ovarian and in the test on K-562 leukemia was above 25 µM in each case.

`C1=C/COCc2cc(ccc2OCCN2CCCC2)Nc2nccc(n2)-c2ccc(o2)COC/1`: the GI50 in the test on T-47D breast was 1.21 µM; with UO-31 renal, 1.06 µM; in the test on OVCAR-4 ovarian, 2.33 µM; with UACC-62 melanoma it was 1.42 µM; in the test with LOX IMVI melanoma it was 0.817 µM; in the test with NCI-H226 lung, 1.74 µM. In addition, the GI50 in the test on OVCAR-8 ovarian is 2.59 µM; in the test on K-562 leukemia, 2.65 µM. The TGI in the test on T-47D breast turned out to be 7.33 µM; in the test on UO-31 renal, 7.06 µM; in the test on OVCAR-4 ovarian, 10.4 µM; in the test on UACC-62 melanoma it was 3.08 µM; with LOX IMVI melanoma, 2.29 µM; with NCI-H226 lung it was 6.13 µM. For the same compound, the TGI is 18.8 µM in the test on OVCAR-8 ovarian and above 33.1 µM in the test on K-562 leukemia.

On to `CCC(C)Oc1nc2c(c(=O)n(C)c(=O)n2C)n1C` (centres undefined), for which the GI50 with T-47D breast, in the test with UO-31 renal, in the test on OVCAR-4 ovarian, with UACC-62 melanoma, in the test on LOX IMVI melanoma and in the test on NCI-H226 lung was above 100 µM throughout. Further, the GI50 with OVCAR-8 ovarian and in the test with K-562 leukemia was above 100 µM each time. For the same compound, the TGI in the test on T-47D breast, in the test on UO-31 renal, in the test on OVCAR-4 ovarian, with UACC-62 melanoma, in the test with LOX IMVI melanoma and in the test with NCI-H226 lung was above 100 µM throughout. Besides, the TGI with OVCAR-8 ovarian and in the test with K-562 leukemia was above 100 µM each time.

In the case of `NC(=O)[C@@H](CC1CC1)[C@@H](CCC(F)(F)F)C(=O)N[C@H]1N=C(c2ccccc2)c2cccc(F)c2NC1=O`, the GI50 with T-47D breast is 15.3 µM; with UO-31 renal it was 75.3 µM; in the test with OVCAR-4 ovarian, 54.9 µM; in the test on UACC-62 melanoma it was above 100 µM; in the test on LOX IMVI melanoma it was 48 µM; in the test on NCI-H226 lung, above 100 µM. The GI50 in the test with OVCAR-8 ovarian was above 100 µM; in the test on K-562 leukemia it was 46.9 µM. In addition, the TGI was 56.8 µM with T-47D breast; above 100 µM in the test with UO-31 renal; above 100 µM with OVCAR-4 ovarian; above 100 µM with UACC-62 melanoma; above 100 µM in the test on LOX IMVI melanoma; above 100 µM with NCI-H226 lung. For the same compound, the TGI in the test with OVCAR-8 ovarian and with K-562 leukemia was above 100 µM each time.
